In PubChem BioAssay (NCI):
Several values for one entry are separate records, joined by “and”; a condition that tells them apart may be missing. Equal values may be shown once.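 How tested: cells in 96-well plates exposed to compound for 48 hours at five concentrations. GI50 is the concentration that inhibits growth by half. The concentration for full growth arrest is given as TGI.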

Key:
Experiment in all cases: inhibition of tumour cell growth, NCI panel, 48 h
UACC-257 melanoma = tested on: UACC-257 melanoma
NCI-H23 lung = tested on: NCI-H23 lung
MDA-MB-435 = tested on: MDA-MB-435
HOP-92 NSCLC = tested on: HOP-92 NSCLC
SK-OV-3 ovarian = tested on: SK-OV-3 ovarian
DU-145 prostate = tested on: DU-145 prostate
SF-295 CNS = tested on: SF-295 CNS
786-0 renal = tested on: 786-0 renal
ACHN renal = tested on: ACHN renal
SK-MEL-2 melanoma = tested on: SK-MEL-2 melanoma
SR leukemia = tested on: SR leukemia
CAKI-1 renal = tested on: CAKI-1 renal
CCRF-CEM leukemia = tested on: CCRF-CEM leukemia
BT-549 breast = tested on: BT-549 breast
NCI-H226 lung = tested on: NCI-H226 lung
HCT-116 colon = tested on: HCT-116 colon
KM12 colon = tested on: KM12 colon
NCI-H522 lung = tested on: NCI-H522 lung
HCT-15 colon = tested on: HCT-15 colon
LOX IMVI melanoma = tested on: LOX IMVI melanoma
OVCAR-3 ovarian = tested on: OVCAR-3 ovarian
MALME-3M melanoma = tested on: MALME-3M melanoma
SNB-75 CNS = tested on: SNB-75 CNS
NCI-H460 lung = tested on: NCI-H460 lung
RXF 393 renal = tested on: RXF 393 renal
UACC-62 melanoma = tested on: UACC-62 melanoma
SF-539 CNS = tested on: SF-539 CNS
HT29 colon = tested on: HT29 colon
SN12C renal = tested on: SN12C renal
K-562 leukemia = tested on: K-562 leukemia
A498 renal = tested on: A498 renal
SK-MEL-28 melanoma = tested on: SK-MEL-28 melanoma
M14 melanoma = tested on: M14 melanoma
NCI/ADR-RES ovarian = tested on: NCI/ADR-RES ovarian
T-47D breast = tested on: T-47D breast
RPMI-8226 leukemia = tested on: RPMI-8226 leukemia
A549 NSCLC = tested on: A549 NSCLC
OVCAR-5 ovarian = tested on: OVCAR-5 ovarian
SF-268 CNS = tested on: SF-268 CNS
U251 CNS = tested on: U251 CNS
HL-60(TB) leukemia = tested on: HL-60(TB) leukemia
PC-3 prostate = tested on: PC-3 prostate
MCF7 breast = tested on: MCF7 breast
MDA-N = tested on: MDA-N
UO-31 renal = tested on: UO-31 renal
HS 578T breast = tested on: HS 578T breast
EKVX NSCLC = tested on: EKVX NSCLC
SK-MEL-5 melanoma = tested on: SK-MEL-5 melanoma
IGROV1 ovarian = tested on: IGROV1 ovarian
HOP-62 NSCLC = tested on: HOP-62 NSCLC
TK-10 renal = tested on: TK-10 renal
COLO 205 colon = tested on: COLO 205 colon
SW-620 colon = tested on: SW-620 colon
HCC-2998 colon = tested on: HCC-2998 colon
MDA-MB-231 breast = tested on: MDA-MB-231 breast
MOLT-4 leukemia = tested on: MOLT-4 leukemia
OVCAR-8 ovarian = tested on: OVCAR-8 ovarian
OVCAR-4 ovarian = tested on: OVCAR-4 ovarian
SNB-19 CNS = tested on: SNB-19 CNS

SMILES: C=CCN(/C=C1\C(=O)O[C@H](COC)[C@@]2(C)C1=C(O)C(=O)C1=C2[C@H](OC(C)=O)C[C@]2(C)C(=O)CC[C@@H]12)CC=C
- GI50 (UACC-257 melanoma): 9.18 µM and 2.26 µM
- TGI (UACC-257 melanoma): 20 µM and > 100 µM
- GI50 (NCI-H23 lung): 8.94 µM and 2.69 µM
- TGI (NCI-H23 lung): 20 µM and > 100 µM
- GI50 (MDA-MB-435): 1.29 µM and 3.63 µM
- TGI (MDA-MB-435): 13.5 µM and 46.9 µM
- TGI (HOP-92 NSCLC): 20 µM and 4.4 µM
- GI50 (SK-OV-3 ovarian): 3.38 µM and 0.596 µM
- TGI (SK-OV-3 ovarian): 20 µM and 19.8 µM
- GI50 (DU-145 prostate): 11.2 µM and 1.27 µM
- TGI (DU-145 prostate): 20 µM and > 100 µM
- GI50 (SF-295 CNS): 0.0935 µM and 0.205 µM
- TGI (SF-295 CNS): 4.82 µM and 9.89 µM
- TGI (786-0 renal): 20 µM and 25.7 µM
- GI50 (ACHN renal): 2.74 µM and 0.449 µM
- TGI (ACHN renal): 20 µM and > 100 µM
- GI50 (SK-MEL-2 melanoma): 3.67 µM and 1.48 µM
- TGI (SK-MEL-2 melanoma): 20 µM and 8.33 µM
- GI50 (SR leukemia): 0.86 µM and 0.644 µM
- TGI (SR leukemia): 20 µM and 8.02 µM
- GI50 (CAKI-1 renal): 0.188 µM and 0.2 µM
- TGI (CAKI-1 renal): 20 µM and 10.1 µM
- GI50 (CCRF-CEM leukemia): 11.1 µM and 1.41 µM
- TGI (CCRF-CEM leukemia): 20 µM and > 100 µM
- TGI (BT-549 breast): 20 µM and 3.68 µM
- GI50 (NCI-H226 lung): 0.364 µM and 1.16 µM
- GI50 (HCT-116 colon): 3.91 µM and 1.76 µM
- TGI (HCT-116 colon): 20 µM and > 100 µM
- GI50 (KM12 colon): 0.979 µM and 2.19 µM
- TGI (KM12 colon): 20 µM and 46.4 µM
- GI50 (NCI-H522 lung): 6.46 µM and 2.87 µM
- TGI (NCI-H522 lung): 20 µM and 22.2 µM
- GI50 (HCT-15 colon): 2.62 µM and 0.787 µM
- TGI (HCT-15 colon): 20 µM and > 100 µM
- GI50 (LOX IMVI melanoma): 0.547 µM and 1.89 µM
- TGI (LOX IMVI melanoma): 20 µM and 21.4 µM
- TGI (OVCAR-3 ovarian): 20 µM and 4.16 µM
- TGI (MALME-3M melanoma): 5.5 µM and 8.3 µM
- GI50 (SNB-75 CNS): 0.291 µM and 0.0327 µM
- GI50 (NCI-H460 lung): 0.278 µM and 0.374 µM
- TGI (NCI-H460 lung): 20 µM and > 100 µM
- GI50 (RXF 393 renal): 0.00922 µM and 0.0149 µM
- TGI (RXF 393 renal): 0.261 µM and 0.196 µM
- GI50 (UACC-62 melanoma): 0.11 µM and 0.075 µM
- TGI (UACC-62 melanoma): 1.38 µM and 2.38 µM
- GI50 (SF-539 CNS): 3.6 µM and 0.524 µM
- TGI (SF-539 CNS): 20 µM and 6.41 µM
- GI50 (HT29 colon): 0.101 µM and 0.558 µM
- TGI (HT29 colon): 20 µM and > 100 µM
- GI50 (SN12C renal): 1.99 µM and 1.07 µM
- TGI (SN12C renal): 20 µM and > 100 µM
- GI50 (K-562 leukemia): 15.1 µM and 12 µM
- TGI (K-562 leukemia): 20 µM and > 100 µM
- GI50 (A498 renal): 0.0671 µM and 0.049 µM
- TGI (A498 renal): 2.73 µM and 1.26 µM
- GI50 (SK-MEL-28 melanoma): 0.838 µM
- TGI (SK-MEL-28 melanoma): 49.1 µM
- GI50 (M14 melanoma): 2.98 µM
- TGI (M14 melanoma): > 100 µM
- GI50 (NCI/ADR-RES ovarian): 5.76 µM and 2.34 µM
- TGI (NCI/ADR-RES ovarian): 20 µM and > 100 µM
- TGI (T-47D breast): 20 µM and > 100 µM
- GI50 (RPMI-8226 leukemia): 7.91 µM and 1.42 µM
- TGI (RPMI-8226 leukemia): 20 µM and 14.1 µM
- GI50 (A549 NSCLC): 0.151 µM and 0.361 µM
- GI50 (OVCAR-5 ovarian): 2.34 µM and 0.737 µM
- TGI (OVCAR-5 ovarian): 20 µM and 76.4 µM
- GI50 (SF-268 CNS): 0.992 µM and 1.46 µM
- TGI (SF-268 CNS): 20 µM and > 100 µM
- GI50 (U251 CNS): 1.6 µM and 3.35 µM
- TGI (U251 CNS): 20 µM and > 100 µM
- GI50 (HL-60(TB) leukemia): 0.21 µM and 0.439 µM
- TGI (HL-60(TB) leukemia): 7.46 µM and 11.2 µM
- TGI (PC-3 prostate): > 100 µM
- GI50 (MCF7 breast): 0.186 µM and 0.257 µM
- TGI (MCF7 breast): 5.95 µM and 22.8 µM
- GI50 (MDA-N): 5.91 µM
- TGI (MDA-N): 20 µM
- GI50 (UO-31 renal): 1.51 µM and 0.331 µM
- TGI (UO-31 renal): 20 µM and > 100 µM
- GI50 (HS 578T breast): 0.173 µM and 0.025 µM
- GI50 (EKVX NSCLC): 0.474 µM and 0.0779 µM
- TGI (EKVX NSCLC): 10.4 µM and 1.67 µM
- GI50 (SK-MEL-5 melanoma): 3.22 µM and 2.18 µM
- TGI (SK-MEL-5 melanoma): 20 µM and 11.6 µM
- GI50 (IGROV1 ovarian): 0.145 µM and 0.206 µM
- TGI (HOP-62 NSCLC): 20 µM and 71.3 µM
- GI50 (TK-10 renal): 0.128 µM and 0.437 µM
- GI50 (COLO 205 colon): 5.04 µM and 1.94 µM
- TGI (COLO 205 colon): 20 µM and 26.3 µM
- GI50 (SW-620 colon): 6.16 µM and 2.09 µM
- TGI (SW-620 colon): 20 µM and > 100 µM
- GI50 (HCC-2998 colon): 0.487 µM and 0.207 µM
- TGI (HCC-2998 colon): 8.12 µM and 4.94 µM
- GI50 (MDA-MB-231 breast): 13.2 µM and 3.32 µM
- TGI (MDA-MB-231 breast): 20 µM and > 100 µM
- GI50 (MOLT-4 leukemia): 1.58 µM and 0.813 µM
- TGI (MOLT-4 leukemia): 20 µM and 17.1 µM
- GI50 (OVCAR-8 ovarian): 10.2 µM and 3.09 µM
- TGI (OVCAR-8 ovarian): 20 µM and > 100 µM
- GI50 (OVCAR-4 ovarian): 2.97 µM and 2.58 µM
- TGI (OVCAR-4 ovarian): 20 µM and > 100 µM
- GI50 (SNB-19 CNS): 5.92 µM and 1.1 µM
- TGI (SNB-19 CNS): 20 µM and 92.9 µM
